Values of other authors as cited in US9045800B2, “Methods and compositions for identifying, classifying and monitoring subject having Bcl-2 family inhibitor-resistant tumors and cancers” (AbbVie Inc., priority 2009, dated 2015).

Key:
solid tumors = details: literature statement, no dose or model printed
[1] = test system: human cancer cell lines (SCLC and lymphoma cell lines)

CN(C)CC[C@H](CSc1ccccc1)Nc1ccc(S(=O)(=O)NC(=O)c2ccc(N3CCN(Cc4ccccc4-c4ccc(Cl)cc4)CC3)cc2)cc1[N+](=O)[O-] [ABT-737, N-(4-(4-((4′-chloro(1,1′-biphenyl)-2-yl)methyl)piperazin-1-yl)benzoyl)-4-(((1R)-3-(dimethylamino)-1-((phenylsulfanyl)methyl)propyl)amino)-3-nitrobenzenesulfonamide]
effect on solid tumors (solid tumors): induce regression of solid tumors
potency against a diverse panel of human cancer cell lines [1]: selective potency against SCLC and lymphoma cell lines
